Source: publication PMC9490236, “Accurate de novo design of membrane-traversing macrocycles” (Cell, 2022)
Where a SMILES comes first, the peptide text is derived from it. [ ]: non-standard residue; d: D form. NMeF = CN[C@@H](Cc1ccccc1)C(=O)O; NMeL = CN[C@@H](CC(C)C)C(=O)O; dNMeL = CN[C@H](CC(C)C)C(=O)O; dNMeV = CN[C@@H](C(=O)O)C(C)C; NMeV = CN[C@H](C(=O)O)C(C)C; NMeA = CN[C@@H](C)C(=O)O; dNMeA = CN[C@H](C)C(=O)O

Legend:
[1] = PAMPA
[2] = in vitro; settings: PAMPA, PAMPA_Papp_Avg

| SMILES | PAMPA_R1 [1] | PAMPA_R3 [1] | Papp [2] [×10⁻⁶ cm/s] |
| --- | --- | --- | --- |
| CC[C@@H](C)[C@H]1NC(=O)[C@H]2CCCN2C(=O)[C@@H](C)NC(=O)[C@@H](CC(C)C)N(C)C(=O)[C@H]([C@@H](C)CC)NC(=O)[C@@H](C(C)C)NC(=O)[C@@H](CC(C)C)N(C)C(=O)[C@@H]2CCCN2C(=O)[C@@H]2CCCN2C1=O [Design D9.26, DPRO DILE PRO PRO *DLEU DVAL ILE *DLEU DALA] (cyclo(I[dNMeL][dA][dP][dI]PP[dNMeL][dV])) | 2.58E-06 | 2.23E-06 | 2.32 |
| CC(C)C[C@@H]1NC(=O)[C@@H](C)N(C)C(=O)[C@@H](CC(C)C)N(C)C(=O)[C@@H]2CCCN2C(=O)[C@H]2CCCN2C(=O)[C@@H](C)NC(=O)[C@@H]2CCCN2C(=O)[C@H]2CCCN2C(=O)[C@@H](CC(C)C)NC1=O [Design D9.27, DLEU DPRO PRO DALA DPRO PRO *DLEU *DALA LEU] (cyclo([dA][dP]P[dNMeL][dNMeA]L[dL][dP]P)) | 3.26E-08 | 3.49E-08 | 0.0334 |
| CC(C)C[C@@H]1C(=O)N[C@H](C)C(=O)N[C@@H](C(C)C)C(=O)N2CCC[C@@H]2C(=O)N[C@H](C(C)C)C(=O)N2CCC[C@@H]2C(=O)N2CCC[C@H]2C(=O)N[C@H](C)C(=O)N(C)[C@H](CC(C)C)C(=O)N1C [Design D9.29, DVAL DPRO PRO DALA *DLEU *DLEU DALA VAL DPRO] (cyclo([dA][dNMeL][dNMeL][dA]V[dP][dV][dP]P)) | 1.96E-06 | 1.19E-06 | 1.51 |
| CC(C)C[C@@H]1NC(=O)[C@H](Cc2ccccc2)N(C)C(=O)[C@H]2CCCN2C(=O)[C@@H](CC(C)C)NC(=O)[C@@H](CC(C)C)NC(=O)[C@H](C)NC(=O)[C@H]2CCCN2C(=O)[C@@H]2CCCN2C(=O)[C@@H](C(C)C)NC1=O [Design D9.32, DPRO ALA DLEU DLEU DPRO *PHE LEU DVAL PRO] (cyclo(A[dL][dL][dP][NMeF]L[dV]P[dP])) | 2.62E-07 | 2.67E-07 | 0.24 |
| CC[C@H](C)[C@@H]1NC(=O)CNC(=O)[C@@H]2CCCN2C(=O)[C@H]2CCCN2C(=O)[C@H]([C@@H](C)CC)NC(=O)[C@@H](C)N(C)C(=O)[C@@H]2CCCN2C(=O)[C@H](C(C)C)NC(=O)[C@@H](CC(C)C)NC1=O [Design D9.33, DPRO PRO GLY ILE DLEU VAL PRO *DALA ILE] (cyclo(GI[dL]VP[dNMeA]I[dP]P)) | 2.73E-07 | 4.74E-07 | 0.317 |
| CC[C@H](C)[C@@H]1NC(=O)[C@H]2CCCN2C(=O)[C@H](CC(C)C)N(C)C(=O)[C@H](CC(C)C)NC(=O)[C@H](C(C)C)NC(=O)[C@@H]2CCCN2C(=O)[C@H](CC(C)C)N(C)C(=O)[C@H](C(C)C)NC(=O)[C@@H](C(C)C)NC1=O [Design D9.39, DVAL VAL *LEU PRO VAL LEU *LEU DPRO ILE] (cyclo(I[dV]V[NMeL]PVL[NMeL][dP])) | 5.51E-07 | 2.78E-07 | 0.466 |
| CC[C@@H](C)[C@H]1NC(=O)[C@H](Cc2ccccc2)NC(=O)[C@@H](C)NC(=O)[C@@H](CC(C)C)N(C)C(=O)[C@@H]2CCCN2C(=O)[C@H](C)NC(=O)[C@H]2CCCN2C(=O)[C@@H]2CCCN2C(=O)[C@@H](Cc2ccccc2)NC1=O [Design D9.41, PRO DPRO ALA PRO *DLEU DALA PHE DILE DPHE] (cyclo(AP[dNMeL][dA]F[dI][dF]P[dP])) | 3.56E-06 | 3.41E-06 | 3.48 |
| CC[C@H](C)[C@@H]1NC(=O)[C@H]2CCCN2C(=O)[C@@H]2CCCN2C(=O)[C@H](C(C)C)NC(=O)[C@@H](C(C)C)NC(=O)[C@H](Cc2ccccc2)N(C)C(=O)[C@H]2CCCN2C(=O)[C@@H](CC(C)C)N(C)C(=O)[C@@H](CC(C)C)NC1=O [Design D9.42, DPRO ILE DLEU *DLEU DPRO *PHE DVAL VAL PRO] (cyclo(I[dL][dNMeL][dP][NMeF][dV]VP[dP])) | 1.18E-06 | 1.07E-06 | 1.12 |
| CC(C)C[C@@H]1C(=O)N2CCC[C@@H]2C(=O)N(C)[C@@H](C(C)C)C(=O)N[C@@H](C(C)C)C(=O)N2CCC[C@H]2C(=O)N2CCC[C@@H]2C(=O)N[C@@H](C)C(=O)N[C@H](C(C)C)C(=O)N(C)[C@@H](CC(C)C)C(=O)N[C@@H](C)C(=O)N1C [Design D10.6, PRO DPRO ALA DVAL *LEU ALA *DLEU DPRO *VAL VAL] (cyclo(A[dNMeL][dP][NMeV]VP[dP]A[dV][NMeL])) | 1.62E-06 | 7.67E-07 | 1.22 |
| CC(C)C[C@@H]1NC(=O)[C@@H](CC(C)C)NC(=O)[C@@H]2CCCN2C(=O)[C@@H](CC(C)C)NC(=O)[C@H](C)N(C)C(=O)[C@H](C)NC(=O)[C@H](CC(C)C)N(C)C(=O)[C@@H]2CCCN2C(=O)[C@H](CC(C)C)NC(=O)[C@H](CC(C)C)N(C)C1=O [Design D10.16, DLEU LEU *LEU LEU PRO *LEU ALA *ALA DLEU PRO] (cyclo(A[NMeA][dL]P[dL]L[NMeL]LP[NMeL])) | 2.30E-06 | 2.32E-06 | 2.27 |
| CC(C)C[C@@H]1C(=O)N[C@H](C)C(=O)N2CCC[C@H]2C(=O)N(C)[C@H](CC(C)C)C(=O)N[C@@H](C)C(=O)N(C)[C@@H](CC(C)C)C(=O)N(C)[C@H](C(C)C)C(=O)N[C@H](Cc2ccccc2)C(=O)N2CCC[C@@H]2C(=O)N2CCC[C@H]2C(=O)N1C [Design D10.18, DPRO PRO *DLEU DALA PRO *DLEU ALA *LEU *DVAL DPHE] (cyclo([dNMeL][dA]P[dNMeL]A[NMeL][dNMeV][dF][dP]P)) | 9.23E-08 | 1.49E-07 | 0.0948 |
| CC(C)C[C@@H]1NC(=O)[C@@H](Cc2ccccc2)NC(=O)[C@@H](CC(C)C)N(C)C(=O)[C@@H]2CCCN2C(=O)[C@H](C)NC(=O)[C@@H](CC(C)C)N(C)C(=O)[C@@H]2CCCN2C(=O)[C@H](CC(C)C)N(C)C(=O)[C@H](CC(C)C)N(C)C(=O)[C@H](C(C)C)NC1=O [Design D10.20, PRO *DLEU ALA PRO *DLEU DPHE LEU VAL *LEU *LEU] (cyclo(AP[dNMeL][dF]LV[NMeL][NMeL]P[dNMeL])) | 1.95E-06 | 3.37E-06 | 2.59 |
| CC[C@@H](C)[C@H]1NC(=O)[C@H](C(C)C)NC(=O)[C@H]2CCCN2C(=O)[C@@H]2CCCN2C(=O)[C@H](CC(C)C)N(C)C(=O)[C@H](C)N(C)C(=O)[C@@H](CC(C)C)N(C)C(=O)[C@H](C)NC(=O)[C@@H](Cc2ccccc2)NC(=O)[C@@H]2CCCN2C1=O [Design D10.25, DPHE ALA *DLEU *ALA *LEU PRO DPRO VAL DILE PRO] (cyclo(A[dNMeL][NMeA][NMeL]P[dP]V[dI]P[dF])) | 3.97E-07 | 4.39E-07 | 0.452 |
| CC[C@@H](C)[C@H]1NC(=O)[C@@H]2CCCN2C(=O)[C@@H](Cc2ccccc2)NC(=O)[C@H](CC(C)C)N(C)C(=O)[C@H](C)NC(=O)[C@H]2CCCN2C(=O)[C@@H]2CCCN2C(=O)[C@H](CC(C)C)NC(=O)[C@H](CC(C)C)N(C)C(=O)[C@H](C)N(C)C1=O [Design D10.26, PRO DILE *ALA *LEU LEU PRO DPRO ALA *LEU DPHE] (cyclo(A[NMeL][dF]P[dI][NMeA][NMeL]LP[dP])) | 1.40E-06 | 1.69E-06 | 1.51 |
| CC(C)[C@@H]1NC(=O)[C@H]2CCCN2C(=O)[C@@H](C(C)C)NC(=O)[C@@H]2CCCN2C(=O)[C@H](Cc2ccccc2)NC(=O)[C@H](Cc2ccccc2)NC(=O)[C@H]2CCCN2C(=O)[C@@H](C(C)C)NC(=O)[C@@H]2CCCN2C(=O)[C@H](C(C)C)NC1=O [Design D10.27, PRO DVAL DPRO VAL VAL PRO DVAL DPRO PHE PHE] (cyclo(FFP[dV][dP]VVP[dV][dP])) | 5.18E-07 | 5.10E-07 | 0.49 |
| CC(C)C[C@@H]1C(=O)N[C@@H](C)C(=O)N[C@H](CC(C)C)C(=O)N(C)[C@@H](C)C(=O)N2CCC[C@@H]2C(=O)N2CCC[C@@H]2C(=O)N2CCC[C@@H]2C(=O)N2CCC[C@H]2C(=O)N[C@H](C(C)C)C(=O)N(C)[C@@H](CC(C)C)C(=O)N1C [Design D10.28, DLEU *ALA DPRO DPRO DPRO PRO DVAL *LEU *DLEU ALA] (cyclo([dV][NMeL][dNMeL]A[dL][NMeA][dP][dP][dP]P)) | 1.56E-07 | 2.34E-07 | 0.184 |
| CC(C)C[C@@H]1C(=O)N(C)[C@H](C)C(=O)N(C)[C@@H](C(C)C)C(=O)N2CCC[C@@H]2C(=O)N[C@H](C)C(=O)N[C@@H](Cc2ccccc2)C(=O)N2CCC[C@@H]2C(=O)N2CCC[C@H]2C(=O)N[C@H](C(C)C)C(=O)N[C@@H](C(C)C)C(=O)N1C [Design D10.29, PHE DPRO PRO DVAL VAL *DLEU *DALA *VAL DPRO DALA] (cyclo([dV]V[dNMeL][dNMeA][NMeV][dP][dA]F[dP]P)) | 3.87E-07 | 4.67E-07 | 0.441 |
| CC(C)C[C@H]1NC(=O)[C@H](CC(C)C)N(C)C(=O)[C@@H](Cc2ccccc2)NC(=O)[C@@H](C)N(C)C(=O)[C@@H]2CCCN2C(=O)[C@H](C(C)C)NC(=O)[C@H](CC(C)C)N(C)C(=O)[C@@H](C)NC(=O)[C@@H]2CCCN2C(=O)[C@H]2CCCN2C1=O [Design D10.32, PRO *DALA DPHE *LEU DLEU DPRO PRO DALA *LEU VAL] (cyclo([dA][NMeL]VP[dNMeA][dF][NMeL][dL][dP]P)) | 2.87E-06 | 2.80E-06 | 3.18 |
| CC(C)C[C@@H]1NC(=O)[C@H](C(C)C)NC(=O)[C@@H](CC(C)C)N(C)C(=O)[C@H](C)NC(=O)[C@@H](CC(C)C)N(C)C(=O)[C@@H]2CCCN2C(=O)[C@H]2CCCN2C(=O)[C@H](C)N(C)C(=O)[C@H]2CCCN2C(=O)[C@@H](CC(C)C)NC1=O [Design D10.35, LEU DLEU DPRO *ALA DPRO PRO *DLEU ALA *DLEU VAL] (cyclo([dNMeL]A[dNMeL]VL[dL][dP][NMeA][dP]P)) | 5.25E-07 | 2.07E-07 | 0.279 |
